The source of these data is patent US8129527B2, “Analogs of dehydrophenylahistins and their therapeutic use” (Nereus Pharmacuticals, Inc., priority 2006, dated 2012).

Common to all, as to assay: Tumor panel screen cytotoxicity (Example 10A)
Type in all cases: cell-based

Data set [1] deals with B16-F10 (murine melanoma). The source says: (§1) Cells were maintained at subconfluent densities in their respective culture media.
Data set [2] concerns CCD-27sk (normal human fibroblast). Conditions: CCD-27sk Fibroblast.
Source text: as §1

Data set [3] concerns PC3 (human prostate tumor). Conditions: PC-3 Prostate.
Source text: as §1

Take `CC(C)(C)c1[nH]cnc1/C=c1\[nH]c(=O)/c(=C/c2ccccc2)[nH]c1=O` [KPU-2, tBu-dehydro-PLH]: the half-maximal inhibitory concentration (IC50) in data set [1] (Mus musculus) stood at 37.1 nM; in data set [2] (Homo sapiens), 9.2 nM; in data set [3] (Homo sapiens) it was 13.4 nM. Further, the “% Cytotoxicity Mean” value in data set [1] (maximum cytotoxic effect) turned out to be 71.8%; in data set [2] (maximum cytotoxic effect) it was 64.3%; in data set [3] (maximum cytotoxic effect) it was 60.3%.
